Data set [1] concerns HPAF-II and PL45 human pancreatic cancer cells. The experiment in a line: XTT assay, cell viability / proliferation. The format is cell-based. How it is done: Reference is now made to FIG. 4, presenting the effect of Striatal C on the viability of HPAF-II and PL45 human pancreatic cancer cells, in comparison to the effect of the Cyathus striatus CBS 126585 extract on the same cells, wherein the measurements of the effects are based on an XTT assay. Particularly, cell proliferation was determined using the sodium 3′-[1-(phenylaminocarbonyl)-3,4-tetrazolium]-bis (4-methoxy-6-nitro) benzene sulfonic acid hydrate (XTT) assay, according to the manufacturer’s instructions (Biological Industries, Beit Haemek, Israel).

For data set [2] the test system is unchanged. The experiment in a line: Annexin-V/PI assay, induction of apoptosis. It is filed as cell-based. The following applies: low doses, 4 hours of exposure. The procedure:
Particularly, Cell death was analyzed by staining the cells with FITC-labeled Annexin V and propedium iodide (PI) using an Annexin V-FITC apoptosis detection kit, (MBL, Nagoya, Japan), according to the manufacturer’s instructions.

Data set [3] can be described thus: Stability of the isolated compound (solid state; in dichloromethane solution). It is filed as physicochemical. The following applies: solid state conditions at -20° C. The procedure:
2. The isolated compound was stable and pure (purity > 95% by HPLC) at solid state conditions at -20° C.
4. During NMR experiments observed partially isomerization of isolated compound. The dissolving in dichloromethane at 20 mg/ml concentration leads to steady state between major and minor isomers with ratio ~75:25. HPLC analyses of NMR solution show only one peak of isolated compound.

On to `CC(C)C1=C2C3=CC=C(C=O)[C@@H]4C(O[C@@H]5OC[C@@H](O)C(=O)[C@@]54O)[C@]3(C)CC[C@@]2(C)CC1` (stereo partly shown) [Striatal C], for which, in data set [1] (control 0 µg/ml), the most effective concentration stood at 10 µg/mL. Also, the “effect on cell viability” value in data set [1] (low doses, 4 hours of exposure) is listed as “profound decrease in cell viability”. The induction of apoptosis entry in data set [2] was “induction of apoptosis”.
In the case of `CC(C)C1=C2[C@H]3[C@@H](O)C=C(C=O)[C@@H]4C(O[C@@H]5OC[C@@H](O)C(=O)[C@@]54O)[C@]3(C)CC[C@@]2(C)CC1` (stereo partly shown) [isolated compound], the “stability at solid state” value in data set [3] was “stable”.
